Here are results for ten compounds from patent publication US6838468B2, “4-(phenyl-piperdin-4-ylidene methyl)-benzamide derivatives and their use for the treatment of pain, anxiety or gastrointestinal disorders” (AstraZeneca AB, priority 2001, dated 2005).

The target of experiment [1] is T1, cloned human δ receptor (Homo sapiens, UniProt P41143).
T1 construct: expressed in transfected cells; host or cells: human 293S (HEK-293S) cells, geneticin-selected
The experiment is described as follows: Binding assay, membranes of human 293S cells expressing cloned human δ receptor (HDELTA). To be noted: radioligand displacement. For orientation: Loss of bound radioactivity is the signal in a displacement assay; it reports binding, not function.

Experiment [2] deals with T1, cloned human δ receptor. Kind of experiment: GTP[γ]35S binding functional assay, HEK-293S membranes expressing cloned human δ receptor (HDELTA). In kind it is biochemical. The protocol: (§1) • A. Human 293S cells expressing cloned human μ, δ, and κ receptors and neomycin resistance were grown in suspension at 37° C. and 5% CO2 in shaker flasks containing calcium-free DMEM10% FBS, 5% BCS, 0.1% Pluronic F-68, and 600 μg/ml geneticin. • B. Mouse and rat brains were weighed and rinsed in ice-cold PBS (containing 2.5 mM EDTA, pH 7.4). The brains were homogenized with a polytron for 15 sec (mouse) or 30 sec (rat) in ice-cold lysis buffer (50 mM Tris, pH 7.0, 2.5 mM EDTA, with phenylmethylsulfonyl fluoride added just prior use to […] from a 0.5M stock in DMSO:ethanol). Membrane Preparation
Cells were pelleted and resuspended in lysis buffer (50 mM Tris, pH 7.0, 2.5 mM EDTA, with PMSF added just prior to use to 0.1 mM from a 0.1 M stock in ethanol), incubated on ice for 15 min, then homogenized with a polytron for 30 sec. The suspension was spun at 1000 g (max) for 10 min at 4° C. The supernatant was saved on ice and the pellets resuspended and spun as before. The supernatants from both spins were combined and spun at 46,000 g(max) for 30 min. The pellets were resuspended in cold Tris buffer (50 mM Tris/Cl, pH 7.0) and spun again. The final pellets were resuspended in membrane buffer (50 mM Tris, 0.32 M sucrose, pH 7.0). Aliquots (1 ml) in polypropylene tubes were frozen in dry ice/ethanol and stored at −70° C. until use. The protein concentrations were determined by a modified Lowry assay with sodium dodecyl sulfate.
(§2) The agonist activity of the compounds is measured by determining the degree to which the compounds receptor complex activates the binding of GTP to G-proteins to which the receptors are coupled. In the GTP binding assay, GTP[γ]^35S is combined with test compounds and membranes from HEK-293S cells expressing the cloned human opioid receptors or from homogenised rat and mouse brain. Agonists stimulate GTP[γ]^35S binding in these membranes. The EC50 and Emax values of compounds are determined from dose-response curves. Right shifts of the dose response curve by the delta antagonist naltrindole are performed to verify that agonist activity is mediated through delta receptors.
A general note: GTPγS resists hydrolysis and so accumulates on activated G proteins.

The target in experiment [3] is T2, delta receptors, rat brain membranes (Rattus norvegicus, UniProt P33533).
T2 construct: Rat brain membranes are thawed at 37° C; from tissue; host or cells: rat brain membranes
Kind of experiment: GTP[γ]35S binding functional assay, rat brain membranes. In kind it is biochemical. To be noted: GTPγ35S binding, maximal stimulated binding with 3 μM SNC-80. The protocol: as §1, §2
Rat brain membranes are thawed at 37° C., passed 3 times through a 25-gauge blunt-end needle and diluted in the GTPγS binding (50 mM Hepes, 20 mM NaOH, 100 mM NaCl, 1 mM EDTA, 5 mM MgCl2, pH 7.4, Add fresh: 1 mM DTT, 0.1% BSA). 120 μM GDP final is added membranes dilutions. […] The basal and maximal stimulated binding are determined in absence and presence of 3 μM SNC-80

Experiment [4] has as its target T3, delta receptors, mouse brain membranes (Mus musculus, UniProt P32300).
T3 construct: from tissue; host or cells: mouse brain membranes
The experiment is described as follows: GTP[γ]35S binding functional assay, mouse brain membranes. In kind it is biochemical. The procedure:
as §1, §2

T3 sequence (P32300 whole entry): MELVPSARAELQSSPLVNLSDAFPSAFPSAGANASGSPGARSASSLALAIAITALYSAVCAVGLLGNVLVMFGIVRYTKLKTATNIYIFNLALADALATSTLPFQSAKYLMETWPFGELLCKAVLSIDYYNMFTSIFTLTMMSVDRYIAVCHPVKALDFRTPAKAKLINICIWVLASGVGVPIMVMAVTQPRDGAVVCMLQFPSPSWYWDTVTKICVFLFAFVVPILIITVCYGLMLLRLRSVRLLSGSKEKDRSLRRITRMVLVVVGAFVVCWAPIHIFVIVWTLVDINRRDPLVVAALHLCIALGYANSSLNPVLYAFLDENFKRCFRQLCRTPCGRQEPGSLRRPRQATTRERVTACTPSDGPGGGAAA
T2 sequence (P33533 whole entry): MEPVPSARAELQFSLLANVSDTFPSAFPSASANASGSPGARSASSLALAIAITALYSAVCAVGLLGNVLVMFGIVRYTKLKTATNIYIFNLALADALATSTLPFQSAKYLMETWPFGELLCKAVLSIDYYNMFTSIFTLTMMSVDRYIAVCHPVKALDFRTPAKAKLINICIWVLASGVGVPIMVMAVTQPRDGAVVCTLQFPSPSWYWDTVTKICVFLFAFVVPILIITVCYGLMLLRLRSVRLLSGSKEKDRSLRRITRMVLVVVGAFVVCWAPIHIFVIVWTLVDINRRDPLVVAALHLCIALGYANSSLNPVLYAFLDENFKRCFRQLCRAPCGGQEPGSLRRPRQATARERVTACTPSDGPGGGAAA
T1 sequence (P41143 whole entry): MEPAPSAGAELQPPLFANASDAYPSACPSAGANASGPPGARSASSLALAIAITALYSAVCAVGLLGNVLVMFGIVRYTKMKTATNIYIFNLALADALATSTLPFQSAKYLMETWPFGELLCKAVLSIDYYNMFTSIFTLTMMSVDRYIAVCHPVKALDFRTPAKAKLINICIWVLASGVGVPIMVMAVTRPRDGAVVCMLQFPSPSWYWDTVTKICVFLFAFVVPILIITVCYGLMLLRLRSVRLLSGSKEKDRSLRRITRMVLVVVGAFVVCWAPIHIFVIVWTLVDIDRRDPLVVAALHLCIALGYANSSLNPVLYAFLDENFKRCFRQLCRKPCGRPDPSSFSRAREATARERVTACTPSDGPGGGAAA

For the compound `CC(C)N(C(=O)c1ccc(C(=C2CCN(Cc3ccccc3)CC2)c2cccc3cccnc23)cc1)C(C)C` [Example 1, 4-[1-(1-Benzyl-piperidin-4-ylidene)-1-quinolin-8-yl-methyl]-N,N-diisopropyl-benzamide], the IC50 – broadly, the point on the concentration scale where inhibition reaches its midpoint – in experiment [1] was in the range of 0.78 to 5 nM. Moreover, the figures for the maximal response (Emax) in experiment [2], in experiment [3] and in experiment [4] were 96 to 102%, 97 to 144% and 100 to 151%, respectively.
Taken in the same sequence, the figures for `CC(C)N(C(=O)c1ccc(C(=C2CCN(Cc3ccccn3)CC2)c2cccc3cccnc23)cc1)C(C)C` [Example 2, N,N-Diisopropyl-4-[1-(1-pyridin-2-ylmethyl-piperidin-4-ylidene)-1-quinolin-8-yl-methyl]-benzamide] were 0.78 to 5 nM, 96 to 102%, 97 to 144% and 100 to 151%.
In turn, `CC(C)N(C(=O)c1ccc(C(=C2CCN(Cc3ccncc3)CC2)c2cccc3cccnc23)cc1)C(C)C` [Example 3, N,N-Diisopropyl-4-[1-(1-pyridin-4-ylmethyl-piperidin-4-ylidene)-1-quinolin-8-yl-methyl]-benzamide] yielded an IC50 in experiment [1] of 0.78 to 5 nM. Besides, the maximum response (Emax) (as a rule, the size of the effect at its maximum, as opposed to the concentration needed) in experiment [2] lay within 96 to 102%; in experiment [3], 97 to 144%; in experiment [4], 100 to 151%.
`CC(C)N(C(=O)c1ccc(C(=C2CCN(Cc3cccs3)CC2)c2cccc3cccnc23)cc1)C(C)C` [Example 4, N,N-Diisopropyl-4-[1-quinolin-8-yl-1-(1-thiophen-2-ylmethyl-piperidin-4-ylidene)-methyl]-benzamide] yielded a concentration for half-maximal inhibition (IC50) in experiment [1] of 0.78 to 5 nM. Further, the values for the Emax in experiment [2], in experiment [3] and in experiment [4] were 96 to 102%, 97 to 144% and 100 to 151%, respectively.
For `CC(C)N(C(=O)c1ccc(C(=C2CCN(Cc3ccoc3)CC2)c2cccc3cccnc23)cc1)C(C)C` [Example 6, N,N-Diisopropyl-4-[1-quinolin-8-yl-1-(1-furan-3-ylmethyl-piperidin-4-ylidene)-methyl]-benzamide], in that order: 0.78 to 5 nM, 96 to 102%, 97 to 144% and 100 to 151%.
Compound `CC(C)N(C(=O)c1ccc(C(=C2CCN(Cc3ccco3)CC2)c2cccc3cccnc23)cc1)C(C)C` [Example 7, N,N-Diisopropyl-4-[1-quinolin-8-yl-1-(1-furan-2-ylmethyl-piperidin-4-ylidene)-methyl]-benzamide] came in with a concentration for half-maximal inhibition (IC50) in experiment [1] of 0.78 to 5 nM. Further, the Emax in experiment [2] is 96 to 102%; in experiment [3] it was 97 to 144%; in experiment [4], 100 to 151%.
In experiment [1], `COc1ccc(CN2CCC(=C(c3ccc(C(=O)N(C(C)C)C(C)C)cc3)c3cccc4cccnc34)CC2)cc1` [Example 8, N,N-Diisopropyl-4-{1-[1-(4-methoxy-benzyl)-piperidin-4-ylidene]-1-quinolin-8-yl-methyl}-benzamide] showed an IC50 of 0.78 to 5 nM. Also, the maximum response (Emax) in experiment [2] was 96 to 102%; in experiment [3] it was 97 to 144%; in experiment [4] it was 100 to 151%.
For `CC(C)N(C(=O)c1ccc(C(=C2CCN(Cc3nccs3)CC2)c2cccc3cccnc23)cc1)C(C)C` [Example 9, N,N-Diisopropyl-4-[1-quinolin-8-yl-1-(1-thiazol-2-ylmethyl-piperidin-4-ylidene)-methyl]-benzamide], in that order: 0.78 to 5 nM, 96 to 102%, 97 to 144% and 100 to 151%.
Compound `CC(C)N(C(=O)c1ccc(C(=C2CCN(Cc3ncc[nH]3)CC2)c2cccc3cccnc23)cc1)C(C)C` [Example 10, 4-{1-[1-(1H-Imidazol-2-ylmethyl)-piperidin-4-ylidene]-1-quinolin-8-yl-methyl]-N,N-diisopropylbenzamide] displayed a concentration for half-maximal inhibition (IC50) in experiment [1] of 0.78 to 5 nM. For the same compound, the Emax in experiment [2] is 96 to 102%; in experiment [3] it was 97 to 144%; in experiment [4] it was 100 to 151%.
Compound `CC(C)N(C(=O)c1ccc(C(=C2CCN(Cc3ccc(Br)cc3)CC2)c2cccc3cccnc23)cc1)C(C)C` [Example 11] gave a 50% inhibitory concentration (IC50) in experiment [1] of 0.78 to 5 nM. The Emax lay within 96 to 102% in experiment [2], 97 to 144% in experiment [3] and 100 to 151% in experiment [4].
